Assay results published in patent US20240299393A1, “SMALL MOLECULE DISRUPTORS OF PROTEIN INTERACTIONS IN HISTONE DEACETYLASE COMPLEXES” (Dana-Farber Cancer Institute, Inc., priority 2021, published 2024).
“Also recorded” adds a separate entry of the source.

Legend:
human SIN3B PAH2 domain = target: T1, human SIN3B PAH2 domain (Homo sapiens, UniProt O75182); test: Ligand-detected NMR, human SIN3B PAH2; format: binding, H. sapiens; details: 300 μM compound, 10 μM protein
T1 construct: Residues 155-241 of human SIN3B (PAH2 domain) were inserted into the pMALC2XE vector for NMR experiments; made in house; host or cells: E. coli BL21 (DE3)
T1 sequence (O75182 155-241): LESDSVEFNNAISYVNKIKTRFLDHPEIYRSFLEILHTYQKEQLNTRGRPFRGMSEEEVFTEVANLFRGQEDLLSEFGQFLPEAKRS
Experimental: Ligand-detected NMR experiments: all results were acquired using a 3 mm tube at 25° C. on a Bruker 600 MHz Avance II system equipped with a CPPTCI cryoprobe (Bruker BioSpin Corp.). In all experiments, the concentration of E6R was fixed at 300 μM (from a stock of 25 mM in deuterated DMSO) and the concentration of the protein at 10 μM. The volume of deuterated DMSO was kept constant (1.5%) in all tested samples. Right before the experiments, the compound and protein were diluted in 1×PBS containing 0.1% deuterated dithiothreitol (DTT) to a total volume of 200 μL. Samples were diluted by 5% with D2O for magnetic field lock. Spectra were acquired for ligand only, protein only, and ligand+protein. […] STD experiments [Mayer et al 2001] were acquired with 160 scans, with protein irradiation applied for 3 s at 0 ppm and −20 ppm for the on and off resonance experiments, respectively. On and off resonance spectra were collected and stored separately. One-dimensional CPMG-R2 edited experiments [Hajduk et al 1997] were collected for samples with and without proteins using seven CPMG delays (0, 25, 50, 100, 300, 500, and 800 ms) with four scans per delay. Proton spectra used to measure DLB and chemical shift perturbations in the absence and presence of the proteins were recorded with 16 scans using a recycle delay of 3 s. […]

[1] = test system: human neuroblastoma SK-N-BE(2)-C xenograft; test: Neuroblastoma xenograft efficacy study; format: in vivo; details: E6R 50 mg/kg, SAHA 20 mg/kg
Experimental: Xenografts studies were performed at the TRACE PDX platform of the Leuven Cancer Institute (LKI) at KU Leuven-UZ Leuven. Treatment experiments included 24 NMRI-Foxlnu nude mice (Taconic) implanted with human neuroblastoma cell line SK-N-BE(2)-C(2 million cells/implant/mouse). Cells, tested for a full panel of murine pathogens (Impact profile I, IDEXX) prior to engraftment, were resuspended in 50% matrigel solution in PBS for injection in the mouse right flank. When tumors reached a volume of approximately 200 mm^3, mice were randomly assigned to vehicle (34% DMSO, 55% saline 0.9%, 5% ethanol, 5% kolliphor, 1% NaOH 1 M), E6R (50 mg/kg), or SAHA (20 mg/kg) treatment groups. Treatments were administered daily intraperitoneally for 10 days or until reaching human endpoint (i.e. tumor volume >1,500 mm^3). Tumors were measured daily with digital calipers, and volume was estimated as V=L×W×H×(π/6) (L: length; W: width; H: height). […] All data were analyzed using GraphPad Prism 8. Comparisons between the vehicle and treated groups were tested for statistical significance using […].

Sin3-Ume6 = target: T2, Sin3-Ume6 (Saccharomyces cerevisiae, UniProt P22579); test: GPCA binary PPI inhibition in HEK293T cells, Sin3-Ume6; format: cell-based, human HEK293T cells
T2 construct: ORFs corresponding to full-length subunits of the Rpd3L HDAC complex were PCR-amplified from yeast genomic DNA; expressed in transfected cells; host or cells: HEK293T
T2 sequence (P22579 whole entry): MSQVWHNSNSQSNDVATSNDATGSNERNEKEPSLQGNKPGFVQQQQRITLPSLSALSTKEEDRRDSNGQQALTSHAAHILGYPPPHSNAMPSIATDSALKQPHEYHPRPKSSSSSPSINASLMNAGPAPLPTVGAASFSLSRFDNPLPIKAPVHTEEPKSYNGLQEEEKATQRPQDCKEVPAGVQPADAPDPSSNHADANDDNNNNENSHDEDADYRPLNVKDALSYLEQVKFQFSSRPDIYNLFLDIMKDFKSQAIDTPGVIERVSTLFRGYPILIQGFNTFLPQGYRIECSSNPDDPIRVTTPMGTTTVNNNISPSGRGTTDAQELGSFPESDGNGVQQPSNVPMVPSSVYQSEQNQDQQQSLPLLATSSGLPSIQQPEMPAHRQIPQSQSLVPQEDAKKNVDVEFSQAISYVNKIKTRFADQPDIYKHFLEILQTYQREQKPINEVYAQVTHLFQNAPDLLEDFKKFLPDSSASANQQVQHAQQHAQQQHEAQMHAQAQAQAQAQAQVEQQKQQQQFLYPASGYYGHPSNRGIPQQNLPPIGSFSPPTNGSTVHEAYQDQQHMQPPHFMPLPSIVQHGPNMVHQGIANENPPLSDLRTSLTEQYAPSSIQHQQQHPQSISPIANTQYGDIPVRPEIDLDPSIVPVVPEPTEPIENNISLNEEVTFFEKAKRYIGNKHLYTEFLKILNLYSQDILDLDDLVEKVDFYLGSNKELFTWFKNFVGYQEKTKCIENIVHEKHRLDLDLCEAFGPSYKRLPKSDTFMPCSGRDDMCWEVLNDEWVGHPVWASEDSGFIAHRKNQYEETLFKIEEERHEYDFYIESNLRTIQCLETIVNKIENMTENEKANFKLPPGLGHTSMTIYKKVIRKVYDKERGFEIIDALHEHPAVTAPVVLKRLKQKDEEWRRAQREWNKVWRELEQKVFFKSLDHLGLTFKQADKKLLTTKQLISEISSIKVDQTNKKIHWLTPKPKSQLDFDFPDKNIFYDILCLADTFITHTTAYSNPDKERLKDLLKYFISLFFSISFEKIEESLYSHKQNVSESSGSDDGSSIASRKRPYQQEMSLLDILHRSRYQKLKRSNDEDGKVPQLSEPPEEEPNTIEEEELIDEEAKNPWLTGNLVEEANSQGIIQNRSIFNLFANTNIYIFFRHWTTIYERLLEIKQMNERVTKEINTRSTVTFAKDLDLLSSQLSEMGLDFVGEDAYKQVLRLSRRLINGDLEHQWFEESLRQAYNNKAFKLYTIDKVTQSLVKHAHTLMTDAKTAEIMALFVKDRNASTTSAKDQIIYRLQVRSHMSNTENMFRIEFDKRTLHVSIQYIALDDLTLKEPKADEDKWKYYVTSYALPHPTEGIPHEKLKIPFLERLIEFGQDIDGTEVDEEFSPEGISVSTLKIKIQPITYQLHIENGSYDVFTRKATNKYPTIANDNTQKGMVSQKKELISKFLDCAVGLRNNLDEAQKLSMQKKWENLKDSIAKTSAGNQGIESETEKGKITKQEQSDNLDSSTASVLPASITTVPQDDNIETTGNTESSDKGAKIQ
Experimental: GPCA (N1-N2 version) was implemented as reported in [Choi et al 2019]. HEK293T cells were seeded at 6×10^4 cells per well in 96-well, flat-bottom, cell culture microplates (Greiner Bio-One, #655083), and cultured in Dulbecco's modified Eagle's medium (DMEM) supplemented with 10% fetal calf serum at 37° C. and 5% CO2. Twenty-four hours later, cells were transfected with 100 ng of each GPCA plasmid (GPCA-N1 and GPCA-N2) using linear polyethylenimine (PEI) to co-express the protein pairs fused with complementary luciferase fragments, Luc1 and Luc2. The DNA/PEI ratio used for transfection was 1:3 (mass:mass). […] Luminescence was measured by auto-injecting 50 μL Renilla luciferase substrate (Renilla Luciferase Assay system, catalog No. E2820, Promega) per well and integrating light output for 4 s using a TriStar luminometer (Berthold).
The ability of compounds to inhibit binary PPIs in the Sin3/Rpd3L HDAC complex was tested by GPCA in a high-throughput screening format. […] The luminescence signal for each PPI was measured by averaging the different DMSO replicates, and calculating the standard deviation of DMSO values for each interaction. […] For each interaction, a particular compound was scored as a PPI inhibitor when it decreased its luminescence signal by at least three standard deviations compared to the corresponding averaged DMSO value. […]

| SMILES | binding to human SIN3B PAH2 by NMR (human SIN3B PAH2 domain) | tolerability and body weight of xenografted mice ([1]; daily) | growth of neuroblastoma tumors compared to vehicle ([1]; daily intraperitoneally 10 days) | inhibition of Sin3-Ume6 PPI (fold change over DMSO) (Sin3-Ume6; 10 μM, 1 h) | inhibition of Sin3-Ume6 PPI (Sin3-Ume6; GPCA) |
| --- | --- | --- | --- | --- | --- |
| C[C@@H](NC(=O)c1c(O)n2ccccc2nc1=O)c1ccccc1 [E6R, 4-hydroxy-2-oxo-N—((R)-1-phenylethyl)-3,4-dihydro-2H-pyrido[, 2-a]pyrimidine-3-carboxamide] | could bind; also recorded: virtually identical to those of yeast Sin3 PAH2 | did not affect mice weight; also recorded: well-tolerated | significantly reduced the growth | – | – |
| CC(NC(=O)c1c(O)n2ccccc2nc1=O)c1ccccc1 (racemic) [E6] | – | – | – | ~2.5 fold | selectively inhibit |
